Measurements from PubChem BioAssay (NCI).
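In this assay, cells in 96-well plates receive the compound at five concentrations for 48 hours. Endpoints are linearly interpolated between the surrounding concentrations. At the TGI there is no net growth.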

Tests used:
Assay in all cases: NCI anticancer screen, dose series, 48 h
ACHN renal = test system: ACHN renal
NCI-H460 lung = test system: NCI-H460 lung
SNB-75 CNS = test system: SNB-75 CNS
SF-295 CNS = test system: SF-295 CNS
COLO 205 colon = test system: COLO 205 colon
HCT-15 colon = test system: HCT-15 colon
HL-60(TB) leukemia = test system: HL-60(TB) leukemia
LOX IMVI melanoma = test system: LOX IMVI melanoma
UACC-62 melanoma = test system: UACC-62 melanoma
MDA-N = test system: MDA-N
A549 NSCLC = test system: A549 NSCLC
MALME-3M melanoma = test system: MALME-3M melanoma
SF-539 CNS = test system: SF-539 CNS
UO-31 renal = test system: UO-31 renal
OVCAR-5 ovarian = test system: OVCAR-5 ovarian
SW-620 colon = test system: SW-620 colon
NCI/ADR-RES ovarian = test system: NCI/ADR-RES ovarian
M14 melanoma = test system: M14 melanoma
RXF 393 renal = test system: RXF 393 renal

SMILES | TGI (ACHN renal) | TGI (NCI-H460 lung) | TGI (SNB-75 CNS) | TGI (SF-295 CNS) | TGI (COLO 205 colon) | TGI (HCT-15 colon) | TGI (HL-60(TB) leukemia) | TGI (LOX IMVI melanoma) | TGI (UACC-62 melanoma) | TGI (MDA-N) | TGI (A549 NSCLC) | TGI (MALME-3M melanoma) | TGI (SF-539 CNS) | TGI (UO-31 renal) | TGI (OVCAR-5 ovarian) | TGI (SW-620 colon) | TGI (NCI/ADR-RES ovarian) | TGI (M14 melanoma) | TGI (RXF 393 renal)
S=C(N/N=C/c1ccccn1)Nc1ccc(Cl)cc1 | 1.66 µM | > 100 µM | 8.74 µM | > 91.7 µM | > 100 µM | > 100 µM | 0.0796 µM | > 35.3 µM | 1.51 µM | > 100 µM | > 65.4 µM | > 29 µM | 14.4 µM | 1.09 µM | > 100 µM | > 100 µM |  |  | 
CCOC(=O)C1C(c2ccc(O)c(OC)c2)c2c([nH][nH]c2=O)CC1(C)O (stereo not drawn) | > 100 µM |  | > 100 µM | > 100 µM | > 100 µM | > 100 µM | > 100 µM | > 100 µM | > 100 µM | > 100 µM | > 100 µM | > 100 µM | > 100 µM | > 100 µM | > 100 µM | > 100 µM | > 100 µM | > 100 µM | 
COC(=O)C1(C(=O)OC)N=C(C)OC1c1ccccn1 (stereo not drawn) | > 100 µM | > 100 µM | > 100 µM | > 100 µM | > 100 µM | > 100 µM | > 100 µM | > 100 µM | > 100 µM | > 100 µM | > 100 µM |  |  | > 100 µM | > 100 µM | > 100 µM | > 100 µM | > 100 µM | > 100 µM
CCOC(=O)/C(N=Nc1ccc(-n2c(C)nc3ccc(Br)cc3c2=O)cc1)=C(/C)O | > 100 µM | > 100 µM | 86.7 µM | > 100 µM | > 100 µM | > 100 µM | > 100 µM | > 100 µM | > 100 µM | > 100 µM | > 100 µM |  | > 100 µM | > 100 µM | > 100 µM | > 100 µM | > 100 µM | > 100 µM | 
COC(CC1(/C=C/O[Si](C(C)C)(C(C)C)C(C)C)C(=O)N(COCC[Si](C)(C)C)c2ccccc21)OC (stereo not drawn) | > 100 µM | > 100 µM | > 100 µM | 22.5 µM | > 100 µM | > 100 µM |  | 52.9 µM | 69.4 µM | > 100 µM | > 100 µM |  | 58.7 µM | > 100 µM | > 100 µM | > 100 µM | > 100 µM | > 100 µM | 29.5 µM
O=C(O)CCNC(=O)c1cc(N(CCBr)CCBr)c([N+](=O)[O-])cc1[N+](=O)[O-] | > 100 µM | > 100 µM | > 100 µM | > 100 µM | > 100 µM | > 100 µM | > 100 µM | > 100 µM |  | > 100 µM | > 100 µM | > 100 µM |  | > 100 µM | > 100 µM | > 100 µM | > 100 µM | > 100 µM | 
COC(=O)c1ccc(NCc2c(O)ccc(O)c2Br)cc1Cl | 30.6 µM | 41.9 µM | 70.2 µM | 35 µM | 33.4 µM | 35.9 µM | 4.52 µM | 27.3 µM | 30.3 µM | 26 µM | > 100 µM | 33.2 µM | 30.4 µM | 29.8 µM | 28.6 µM | 25 µM | 44.9 µM | 33.3 µM | 
O=C(CC(C(=O)c1cccs1)c1cccs1)c1ccccc1Cl (stereo not drawn) | > 100 µM | > 100 µM | > 100 µM | > 100 µM | > 100 µM | > 100 µM | > 100 µM | > 100 µM | > 100 µM | > 100 µM | > 100 µM | > 100 µM | > 100 µM | > 100 µM | > 100 µM | > 100 µM | > 100 µM | > 100 µM | 
Cc1cc(=O)[nH]c2cc(NC(=O)C(CCCN=C(N)N)NC(=O)OCc3ccccc3)ccc12 (stereo not drawn) | > 100 µM | > 100 µM | > 100 µM | > 100 µM | > 100 µM | > 100 µM | > 100 µM | > 100 µM | > 100 µM | > 100 µM | > 100 µM | > 100 µM | > 100 µM | > 100 µM | > 100 µM | > 100 µM | > 100 µM | > 100 µM | 
COC(=O)c1c2c(cc3c1CC1(C3)Cc3cc4c(c(C(C)=O)c3C1)CCC4)C=CC2 (stereo not drawn) | > 31.6 µM | > 31.6 µM | 31.2 µM | > 31.6 µM | > 31.6 µM | > 31.6 µM | > 31.6 µM |  | > 31.6 µM |  | > 31.6 µM |  | > 31.6 µM | > 31.6 µM | > 31.6 µM |  | > 31.6 µM | > 31.6 µM | 
O=c1oc2ccccc2c(O)c1/C=N/C(=S)NCc1ccccc1 | > 100 µM | > 100 µM | > 100 µM | > 100 µM | > 100 µM | > 100 µM | > 100 µM | > 100 µM |  | > 100 µM | > 100 µM |  | > 100 µM | > 100 µM | > 100 µM | > 100 µM | > 100 µM | > 100 µM | 
CN1C(=O)C(C(N)=O)C2CC1(C)Oc1ccccc12 (stereo not drawn) | > 100 µM | > 100 µM | > 100 µM |  | > 100 µM | > 100 µM | > 100 µM | > 100 µM | > 100 µM |  | > 100 µM | > 100 µM |  |  | > 100 µM | > 100 µM | > 100 µM | > 100 µM | > 100 µM
CC(C)(C)CNC(=O)NCn1cc(-c2ccccc2)nn1 | > 100 µM | > 100 µM |  | > 100 µM | > 100 µM | > 100 µM | > 100 µM | > 100 µM |  |  | > 100 µM | > 100 µM | > 100 µM |  | > 100 µM | > 100 µM | > 100 µM | > 100 µM | 
Cc1ccc(N=C2S/C(=C3/CCC=C3N3CCOCC3)N(c3ccc(Cl)cc3)C2=Nc2ccc(C)cc2)cc1 | > 100 µM | > 100 µM | > 100 µM |  | > 100 µM | > 100 µM | > 100 µM |  | > 100 µM | > 100 µM | > 100 µM | > 100 µM |  | > 100 µM | > 100 µM | > 100 µM |  | > 100 µM | > 100 µM
